One compound from article PMC9448382, “Fluorosulfate-containing pyrazole heterocycles as selective BuChE inhibitors: structure-activity relationship and biological evaluation for the treatment of Alzheimer’s disease” (Journal of Enzyme Inhibition and Medicinal Chemistry, 2022) can be followed below.

In one series the target is T1, hBuChE from human serum (Homo sapiens, UniProt P06276).
T1 construct: purchased Sigma B4186; host or cells: human serum (per result head)
Description: hBuChE inhibition assay. The class given is biochemical. Conditions: mean ± SEM. How it is done:
With 0.1 M pH 8 PBS, a DTNB solution (5 μM) was produced. Dissolve the test compound in DMSO to prepare a concentration of 2 × 10^−1 M stock solution. The solution was diluted in ethanol to five concentrations of 200, 100, 10, 1 and 0.1 μM, respectively. Measurement was carried out with 96-well plates, add 40 μL buffer, 10 μL test compound at a series of concentrations, and 10 μL AChE/BuChE in sequence. The mixture was then incubated at 37 °C for 10 min. Then add 20 μL DTNB, incubation at 37 °C for 10 min. […] For the blank value, 10 μL of ethanol was used instead of the inhibitor solution. The percentage of enzyme activity and the logarithm of compound concentration were used to express the inhibitory activity of compounds. IC50 was calculated by SPSS17.0.

The subject of series [1] is human normal liver cells LO2. As to the kind of experiment: Cytotoxicity MTT assay, L02 cells. The note with it: 50 μM, 24 h. The procedure: (§1) Human hepatoblastoma cells HepG2 and human normal liver cells LO2 cells were cultured at 37 °C in DMEM containing 10% foetal bovine serum, 100 U/mL penicillin, and […] streptomycin in a humidified incubator with 5% CO2. The methyl thiazolyl tetrazolium (MTT) assay was used to assess cell cytotoxicity. In a 96-well plate, HepG2 cells and LO2 cells were injected at 1 × 10^4 cells per well. The cells were treated with various substances that were diluted in DMEM for 24 h after being cultivated for 24 h. The cells were then treated for 4 h with 20 µL 0.5 mg/mL MTT reagent. The cell culture was withdrawn after 4 h, and 150 µL DMSO were added to dissolve the formazan. […] Three independent tests were used to calculate cell viability.
(§2) Blank: cultured with fresh medium only.
A general note: Formazan colour is commonly taken as a measure of viable cells.

Series [2] has as its system human hepatoblastoma cells HepG2. Description: Cytotoxicity MTT assay, HepG2 cells. The note with it: 50 μM, 24 h. How it is done:
as §1, §2

A further series deals with PC12 cells. As to the kind of experiment: Neuroprotection assay against H2O2-induced PC12 cell injury. The class given is cell-based. Conditions: Rattus norvegicus. How it is done:
PC12 cells were distributed at a density of 1 × 10^4 cells per well into 96-well microtiter plates. At time zero, cells were treated with a range of compounds K3 concentrations (1‒25 µM) and kept for 3 h after being incubated overnight. The media were then changed with new media containing the medication as well as a cytotoxic stimulus in the form of 100 µM H2O2, which was left for another 24 h. The MTT assay was used to determine cell viability after 24 h. In the cells, 20 µL of 0.5 mg/mL MTT reagent was applied and incubated for 4 h. The cell culture was removed after 4 h, and 150 µL DMSO was added to dissolve the formazan. The optical density was measured at 492 nm (OD492) on the Biotek Synergy HTX Multi-Mode reader. Results were adjusted considering OD measured in the blank.

Another series in a line: in vitro. The text has this:
Based on prior work[40]^,[41], a parallel artificial membrane permeation assay (PAMPA) for the blood-brain barrier (BBB) was used to determine the ability of the test chemical to penetrate into the brain. Six commercial medicines were purchased from Aladdin Reagents to validate the methodology. Energy Chemical provided the DMSO and dodecane. Avanti Polar Lipids provided the porcine brain lipid (PBL). Millipore provided the donor 96-well filter microplate with a PVDF membrane (pore size […]) and the acceptor indented 96-well microplate. Corning Inc. provided the 96-well UV plate (COSTAR). DMSO was used to dissolve commercial medications and test compounds at a concentration of 20 mg/mL. They were then diluted 200 times in a solution of PBS (pH 7.4 ± 0.1)/EtOH (70/30, v/v) to achieve a final concentration of 100 µg/mL. The donor microplate's fifilter membrane was coated with 4 µL of PBL in dodecane (20 mg/mL). The donor wells were then filled with 200 µL of diluted chemical solution and 300 µL of PBS/EtOH (70/30, v/v). To make the membrane contact with buffer solution, the donor fifilter plate was carefully positioned on top of the acceptor plate to form a “sandwich” assembly. At 25 °C, the sandwich was left undisturbed. The donor plate was carefully removed after 18 h of incubation, and the concentrations of test chemicals in the donor and acceptor wells were quantified using a UV plate spectroscopic reader (PerkinElmer VICTOR Nivo, Finland). Each sample was analysed at three wavelengths, in at least three independent experiments, in four wells.
Pe, permeability, refers to the ability of compounds to permeate the membranes through passive diffusion in the blood-brain barrier penetration assays.

The subject of the next series is ICR mice. As to the kind of experiment: In vivo acute toxicity evaluation. An excerpt: A total of 20 mice weighing 20‒25 g (F: M = 1: 1) were randomly allocated into two groups: control (n = 10) and experimental (n = 10). […] For two weeks, the mice's behaviour, appearance, and body weight changes were examined and documented. GraphPadPrism8.0 software was used to compare and summarise the body weights of the mice in the control and experimental groups.

Series [3] deals with male ICR mice. As to the kind of experiment: In vivo hepatotoxicity evaluation. Set-up: species or system mouse. How it is done:
. Mice were fasted for 24 h. Intragastrically, the combination was given at a dose of 30 mg/kg body weight with the same quantity of vehicle (po). […] A biochemical analyser was used to process the data (Hitachi 7020, Japan). Mice were slaughtered and livers were obtained for immunohistochemical morphological evaluation after the last sample of postglobular blood. We isolated two 3-mm sections of each liver from the hilum to the edge of the left lateral lobe using an ultra-thin semi-automatic microtome (LeicaRM2245, Germany), immediately placed them in 10% buffered formaldehyde, fixed them for 2 days, and embedded them in paraffin blocks using a paraffin-embedding station (LeicaEG1150H, Germany). Subsequently, five […] sections were prepared from these paraffin sections, deparaffinized, stained with haematoxylin and eosin (HE) or using the periodic acid-Schiff glycogen staining method.

The test system of a further series is Aβ1–42. Description: Brain Aβ1–42 total amount by mouse ELISA kit. The format is in vivo. The note with it: mice, Aβ1–42 icv model, K3 10 mg/kg po, donepezil 15 mg/kg po. The procedure: In the Aβ1–42 oligomeric damage experiment, all mice were sacrificed after the behavioural research was completed, and the brains were collected to assess the total content of Aβ1–42 using a mouse ELISA kit. Each brain tissue sample was thoroughly homogenised in a grinder with 10 times PBS (pH = 7.4 ± 0.1) before being centrifuged for 5 min at 5000×g. The supernatant was separated for use. The detection technique followed the directions exactly, and the standard curve was created. Brain tissue Aβ1–42 content was calculated according to the linear regression equation. All values were expressed as mean ± SEM using GraphPadPrism8.0 software.

The subject of series [4] is male ICR mice. The note with it: Day 3 to Day 14.
Description: The National Institutes of Health Guide for the Care and Use of Laboratory Animals was followed for all experiments. The Animal Care and Use Committee of Anhui Medical University adopted the Measures for the Care and Treatment of Laboratory Animals. In Anhui Medical University's animal centre, male ICR mice were employed (Hefei). […] Throughout all of the experiments, the room's ambient temperature and relative humidity (50%) remained constant. […] 8‒10 animals were used in each study group. The experimental time was from 08: 00 to 14: 00, and the mice were sacrificed by cervical dislocation shortly after the experiment ended. […] Aβ1–42 aggregation was induced by dissolving the Aβ1–42 peptide in DMSO as a stock solution of 5 mM and incubating it in saline at a final concentration of 2 mg/mL for 24 h at 37 °C.
Where [5] appears, read: ICR mice, intragastric, 1.0 g/kg, 14 days.

T1 sequence (P06276 29-602): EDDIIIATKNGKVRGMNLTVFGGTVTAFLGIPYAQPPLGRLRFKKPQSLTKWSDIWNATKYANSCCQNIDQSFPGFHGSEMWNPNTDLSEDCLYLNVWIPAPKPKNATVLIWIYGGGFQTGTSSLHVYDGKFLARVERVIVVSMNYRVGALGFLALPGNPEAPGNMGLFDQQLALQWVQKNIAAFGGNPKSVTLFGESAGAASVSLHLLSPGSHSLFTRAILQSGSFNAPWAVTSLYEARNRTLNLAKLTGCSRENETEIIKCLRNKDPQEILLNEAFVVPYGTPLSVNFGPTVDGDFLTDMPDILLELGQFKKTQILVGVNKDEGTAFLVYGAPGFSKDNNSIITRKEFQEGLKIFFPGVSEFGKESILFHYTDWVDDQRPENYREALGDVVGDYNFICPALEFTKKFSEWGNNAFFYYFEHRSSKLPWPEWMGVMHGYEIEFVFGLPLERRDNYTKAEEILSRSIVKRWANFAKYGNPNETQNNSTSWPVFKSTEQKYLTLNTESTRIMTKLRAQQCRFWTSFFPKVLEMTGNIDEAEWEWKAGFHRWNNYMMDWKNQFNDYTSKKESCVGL

As usually defined, the IC50 is the concentration that inhibits the measured activity by half. In general, viability refers to a per cent measure of how many cells are alive, often set against a control. The term Papp denotes the rate of passage across a membrane or cell layer, normalised by area and donor concentration. In turn, `O=S(=O)(F)Oc1cc(-c2ccccc2)nn1-c1ccc(Cl)cc1` [Compound K3] showed an IC50 at hBuChE from human serum of 6.59 ± 3.54 µM. The cell survival rate in series [1] came out at 94.4%. This compound also registered a cell survival rate in series [2] of 87.9%. Besides, in the series on PC12 cells (PC-12, 100 µM H2O2, compound 5 µM), the viability at 5 µM worked out at 55.9%. Further, in the series with PC12 cells (PC-12, 100 µM H2O2, compound 25 µM), the viability at 25 µM worked out at 69.3%. The Papp in the series “in vitro” (PAMPA, pH 7.4) stood at 7.2 ×10⁻⁶ cm/s. The “Pe Exp. value” in the series “in vitro” (PAMPA-BBB, 18 h, 25 °C, three independent experiments) is listed as “above 4 ×10^-6cm/s”. In the series with ICR mice (setting [5]), the “differences in body weight changes vs vehicle group” value is “not significant” and the “tolerability in single-dose acute toxicity assay” value is “well tolerated”. In the series on ICR mice (mice, in vivo safety experiments), this compound yielded a tolerated dose of 1000 mg/kg. Also, the “serum ALT and AST levels vs vehicle group” value in the series with male ICR mice [3] (30 mg/kg po, 8, 22 and 36 h after single dosing) is listed as “No significant difference”. In addition, the liver histomorphology entry in the series with male ICR mice [3] (30 mg/kg, 36 h after administration) is “no core necrosis or evident steatosis”. The “decrease of Aβ1–42 peptides in brain” value in the series with Aβ1–42 is on record as 17.6%. In addition, the “effect on body weight during administration” value in the series on male ICR mice [4] (10 mg/kg po) was “no effect on body weight increase”. Further, in the series with male ICR mice [4] (Aβ1–42 10 µg icv, K3 10 mg/kg po, donepezil 15 mg/kg po), the “effect on Aβ1–42-induced cognitive dysfunction (MWM)” value is “significantly improved”.
